Test results: patent US9447020B2, “Polyunsaturated fatty acid monoglycerides, derivatives, and uses thereof” (SCF PHARMA INC., priority 2013, dated 2016)

What was measured:
[1] = system: A549 human cancer cell line; experiment: In vivo tumor xenograft experiment: tumor tissue fatty acid composition after oral MAG-DHA; settings: A549 xenografts in female CD-1 nude mice; per os 618 mg/kg daily for 48 days; tumors harvested 24 hours after treatment completion; HPLC-MS
Method: Female CD-1 nude mice were obtained from Charles River Laboratories (Montreal, Qc, Canada). All studies involving mice were approved by the institutional animal care committee (Protocol: #237-10). Human A549 xenografts were established in 4-week-old female CD-1 nude mice. Mice were inoculated with 0.2 ml of a solution of 1×10^6 A549 cells subcutaneously on the right flank. Mice were randomly assigned into 3 groups, control (untreated), corn oil and MAG-DHA (CA2672513, CA2677670) treated (n=6 per group). Corn oil and MAG-DHA were administrated per os (618 mg/kg) daily following cell inoculation. Treatments were continued for 48 days. Mice were sacrificed when tumor volume reached ≈1.5 cm3 in the control group. Tumor tissues were harvested 24 hours after treatment completion. Tumor tissue fatty acids compositions were measured using a high-performance liquid chromatography (HPLC)-MS method [Gagne S and al. J Lipid Res 2007 January; 48(1):252-9] modified to detect complete fatty acid composition. Data were acquired in SIM mode corresponding to the following fatty acids: C20:4 (AA), C20:5 (EPA), C22:5 (DPA), C22:6 (DHA). The linear calibration curves were obtained in the concentration range of 2 to 500 μg/ml
FIG. 1 represents the fatty acids compositions of tumors after MAG-DHA oral supplementation.

SW620 cells = experiment: Effect on growth of SW620 cells (cell counting, trypan blue); type: cell-based, Human; settings: for IC50: SW620 colorectal carcinoma cells, 48 h treatment, 0.2% FBS, cumulative concentration response curve
Method: Human SW620 colorectal carcinoma cells were obtained from the American Type Culture Collection (ATCC) and maintained in Leitbovitz's L-15 medium containing 10% FBS, 10 mM HEPES, 2.2 g/L Na2C03 and 10 units/ml penicillin, 100 μg/ml streptomycin. Cells were grown in a 5% CO2 incubator at 37° C. A predefined number of SW620 cells were allowed to grow in 24 wells plates (1×10^4 cells/well) for 3 days until cells reached 80% confluence. Then, cells were starved in Leitbovitz's medium without FBS for 8 h. Then, the culture medium was replaced with Leitbovitz+0.2% FBS and different concentrations of MAG-DHA, MAG-EPA or MAG-DPA (0.1, 0.3, 1, 3, 10, 30 and 100 μM) were added to each well. Culture media were changed every 24 h and cells were treated for 48 h. After 48, the medium was removed from the culture plates and 0.05% trypsing EDTA was used to detach the cells from the surface of the culture plates. The harvested cells were counted, both the viable and dead ones, using a Countess Automated Cell Counter (Invitrogen Inc.). Briefly, for each condition an appropriated cell dilution was prepared from the harvested cells and an aliquot was mixed with an equal volume of 0.4% trypan blue, and 10 μl was transferred into each side of a Countess™ chamber slide. All concentrations tested were performed in triplicata and were representative of 5 independent experiment.
FIG. 2 represents an in vitro cumulative concentration response curves (CCRC) of MAG-DHA, MAG-EPA and MAG-DPA ([…]) on SW620 cell growth.

| fatty acids compositions of tumors (EPA, DHA, DPA) compared to control and corn oil groups [1] | IC50 (SW620 cells) | IC50 (SW620 cells; Homo sapiens, SW-620, 48 h) | Compound | times more active than MAG-EPA or MAG-DHA (SW620 cells; SW620 cell growth, comparison of IC50 values) |
| --- | --- | --- | --- | --- |
| significant increase in EPA, DHA and DPA | 2900 nM | – | CC/C=C\C/C=C\C/C=C\C/C=C\C/C=C\CCCCCC(=O)OCC(O)CO (stereo not drawn) [MAG-DHA, sn1(3)-all-cis-4,7,10,13,16,19-docosahexaenoylglyceride] | – |
| – | – | 3200 nM | CC/C=C\C/C=C\C/C=C\C/C=C\C/C=C\CCCC(=O)OCC(O)CO (stereo not drawn) [MAG-EPA, sn1(3)-all-cis-5,8,11,14,17-eicosapentaenoylglyceride] | – |
| – | 370 nM | – | CC/C=C\C/C=C\C/C=C\C/C=C\C/C=C\CCCCCC(=O)OCC(O)CO (stereo not drawn) [MAG-DPA, sn1(3)-all-cis-7,10,13,16,19-docosapentaenoylglyceride] | 10 times |
